Results from patent US20240024520A1, “AUTONOMOUS KNOB DOMAIN PEPTIDES” (UCB BIOPHARMA SRL, priority 2020, published 2024).
Where two headings read alike, the source gives them in different places. Bridge positions count the residues as written; N and C are the ends. Peptide text beside a SMILES is read from it.

Biological target: C5 (Homo sapiens, UniProt P01031)
Experiment: Biacore multi-cycle kinetics on human C5
Format: binding
Conditions: for mean stoichiometric ratio: measured Rmax divided by theoretical Rmax; for koff: read-out: mean Koff; for kon: read-out: mean Kon
Method: Binding of knob domain peptides to human C5 was measured by SPR, using a multi-cycle kinetics method as follows:
Kinetics were measured using a Biacore 8K (GE Healthcare) with a CM5 chip, which was prepared as follows: EDC/NHS was mixed at 1:1 ratio (flow rate, 10 μL/min; contact time, 30 seconds), human C5 protein at 1 μg/mL in pH 4.5 sodium-acetate buffer, were injected over flow cell one only (flow rate, 10 μL/min; contact time, 60 seconds). Final immobilization levels in the range of 2000-3000 response units (RU) were obtained, to yield theoretical Rmax values of ˜50-60 RU. Serial dilutions of peptide were prepared in HBS-EP buffer and injected (flow rate, 30 μL/min; contact time, 240 seconds; dissociation time, 6000 seconds). After each injection, the surface was regenerated with two sequential injections of 2M MgCl2 (flow rate, […]; contact time, 30 seconds). Binding to the reference surface was subtracted, and the data were fitted to a single site binding model, using Biacore evaluation software.

[1] = multi-cycle kinetics, n = 3 experiments

C5, sequence (P01031 19-1676): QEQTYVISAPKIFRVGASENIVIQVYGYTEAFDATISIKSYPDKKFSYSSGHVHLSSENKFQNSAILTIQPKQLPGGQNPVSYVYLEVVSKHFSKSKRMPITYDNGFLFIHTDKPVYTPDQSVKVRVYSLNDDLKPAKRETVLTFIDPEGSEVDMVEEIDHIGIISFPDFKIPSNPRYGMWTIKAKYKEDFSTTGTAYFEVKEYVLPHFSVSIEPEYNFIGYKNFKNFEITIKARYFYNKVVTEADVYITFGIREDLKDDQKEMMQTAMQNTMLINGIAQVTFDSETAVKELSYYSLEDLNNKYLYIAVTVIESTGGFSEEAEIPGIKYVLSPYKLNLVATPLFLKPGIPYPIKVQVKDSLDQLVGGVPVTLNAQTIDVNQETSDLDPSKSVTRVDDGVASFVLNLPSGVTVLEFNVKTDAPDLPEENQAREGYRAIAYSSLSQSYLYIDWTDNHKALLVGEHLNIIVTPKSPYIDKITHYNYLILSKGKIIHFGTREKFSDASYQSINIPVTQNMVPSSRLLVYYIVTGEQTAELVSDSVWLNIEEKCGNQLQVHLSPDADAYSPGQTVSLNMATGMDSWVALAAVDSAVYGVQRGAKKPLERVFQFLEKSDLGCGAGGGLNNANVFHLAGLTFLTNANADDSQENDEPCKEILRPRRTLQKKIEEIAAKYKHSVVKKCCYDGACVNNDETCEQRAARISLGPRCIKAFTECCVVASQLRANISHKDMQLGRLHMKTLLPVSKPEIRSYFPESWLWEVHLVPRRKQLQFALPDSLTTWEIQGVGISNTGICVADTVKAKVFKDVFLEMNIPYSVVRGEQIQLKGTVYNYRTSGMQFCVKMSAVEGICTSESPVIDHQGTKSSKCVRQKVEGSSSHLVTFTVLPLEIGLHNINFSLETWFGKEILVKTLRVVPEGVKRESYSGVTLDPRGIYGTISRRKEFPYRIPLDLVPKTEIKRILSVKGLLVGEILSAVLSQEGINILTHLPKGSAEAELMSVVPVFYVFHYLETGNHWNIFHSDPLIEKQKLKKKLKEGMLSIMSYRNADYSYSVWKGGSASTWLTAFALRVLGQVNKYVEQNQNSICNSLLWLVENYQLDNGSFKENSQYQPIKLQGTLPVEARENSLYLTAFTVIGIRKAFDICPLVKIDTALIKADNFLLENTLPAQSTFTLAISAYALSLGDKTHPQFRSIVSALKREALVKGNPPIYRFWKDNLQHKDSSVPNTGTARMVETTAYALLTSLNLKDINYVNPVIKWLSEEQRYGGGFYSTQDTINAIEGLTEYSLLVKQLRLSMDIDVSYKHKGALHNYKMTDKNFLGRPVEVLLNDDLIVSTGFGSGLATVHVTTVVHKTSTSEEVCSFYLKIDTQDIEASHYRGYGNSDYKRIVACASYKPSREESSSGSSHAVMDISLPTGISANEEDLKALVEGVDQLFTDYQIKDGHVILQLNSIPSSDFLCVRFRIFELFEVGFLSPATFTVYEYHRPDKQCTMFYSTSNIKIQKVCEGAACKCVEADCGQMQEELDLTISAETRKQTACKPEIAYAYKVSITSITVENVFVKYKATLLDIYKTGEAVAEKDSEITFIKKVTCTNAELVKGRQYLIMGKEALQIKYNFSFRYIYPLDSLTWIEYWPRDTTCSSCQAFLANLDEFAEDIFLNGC

binding to human C5 (chemical knob domains and variants, result in words) | Molecule | mean stoichiometric ratio (n = 3 experiments) | koff [s⁻¹] | kon [M⁻¹ s⁻¹] | koff [1] [s⁻¹] | kon [1] [M⁻¹ s⁻¹]
– | CC[C@H](C)[C@@H]1NC(=O)[C@H](C)NC(=O)[C@H](C(C)C)NC(=O)CNC(=O)[C@@H]2CSSC[C@@H](C(=O)NCC(=O)N[C@@H](Cc3c[nH]cn3)C(=O)N[C@@H](C)C(=O)N[C@@H](CC(C)C)C(=O)N[C@@H](CC(N)=O)C(=O)N[C@@H](CO)C(=O)NCC(=O)N3CCC[C@H]3C(=O)N[C@@H](CC(N)=O)C(=O)N[C@H](C(=O)N[C@@H](CO)C(=O)N3CCC[C@H]3C(=O)N[C@@H](Cc3ccc(O)cc3)C(=O)N[C@H](C(=O)N[C@@H](CO)C(=O)N[C@H](C(=O)O)[C@@H](C)O)C(C)C)[C@@H](C)CC)NC(=O)CNC(=O)[C@H](Cc3c[nH]c4ccccc34)NC(=O)[C@H](CCCNC(=N)N)NC(=O)CNC(=O)[C@H](CSSC[C@H](NC(=O)[C@@H](N)[C@@H](C)O)C(=O)N3CCC[C@H]3C(=O)N[C@@H](CCC(=O)O)C(=O)NCC(=O)N[C@@H](Cc3c[nH]c4ccccc34)C(=O)N[C@@H](CO)C(=O)N[C@@H](CCC(=O)O)C(=O)N2)NC(=O)[C@H](CCC(=O)O)NC(=O)[C@H](Cc2ccc(O)cc2)NC(=O)CNC(=O)[C@H](Cc2ccc(O)cc2)NC1=O [K92chemFE F26A] (H-TCPEGWSECGVAIYGYECGRWGCGHALNSGPNISPYVST-OH; disulfide 2-18, 9-23; N-terminus assumed) | 0.65 | 0.00328 | 184000 | – | –
– | CC[C@H](C)[C@@H]1NC(=O)[C@H](C)NC(=O)[C@H](C(C)C)NC(=O)CNC(=O)[C@@H]2CSSC[C@@H](C(=O)NCC(=O)N[C@@H](Cc3c[nH]cn3)C(=O)N[C@@H](Cc3ccccc3)C(=O)N[C@@H](CC(C)C)C(=O)N[C@@H](CC(N)=O)C(=O)N[C@@H](CO)C(=O)NCC(=O)N3CCC[C@H]3C(=O)N[C@@H](CC(N)=O)C(=O)N[C@H](C(=O)N[C@@H](CO)C(=O)N3CCC[C@H]3C(=O)N[C@@H](Cc3ccc(O)cc3)C(=O)N[C@H](C(=O)N[C@@H](CO)C(=O)N[C@H](C(=O)O)[C@@H](C)O)C(C)C)[C@@H](C)CC)NC(=O)CNC(=O)[C@H](Cc3c[nH]c4ccccc34)NC(=O)[C@H](CCCNC(=N)N)NC(=O)CNC(=O)[C@H](CSSC[C@H](NC(=O)[C@@H](N)[C@@H](C)O)C(=O)N3CCC[C@H]3C(=O)N[C@@H](CCC(=O)O)C(=O)NCC(=O)N[C@@H](C)C(=O)N[C@@H](CO)C(=O)N[C@@H](CCC(=O)O)C(=O)N2)NC(=O)[C@H](CCC(=O)O)NC(=O)[C@H](Cc2ccc(O)cc2)NC(=O)CNC(=O)[C@H](Cc2ccc(O)cc2)NC1=O [K92chemFE W6A] (H-TCPEGASECGVAIYGYECGRWGCGHFLNSGPNISPYVST-OH; disulfide 2-18, 9-23; N-terminus assumed) | 0.60 | – | – | 0.00157 | 7980
– | CC[C@H](C)[C@@H]1NC(=O)[C@H](C)NC(=O)[C@H](C(C)C)NC(=O)CNC(=O)[C@@H]2CSSC[C@@H](C(=O)NCC(=O)N[C@@H](Cc3c[nH]cn3)C(=O)N[C@@H](Cc3ccccc3)C(=O)N[C@@H](CC(C)C)C(=O)N[C@@H](CC(N)=O)C(=O)N[C@@H](CO)C(=O)NCC(=O)N3CCC[C@H]3C(=O)N[C@@H](CC(N)=O)C(=O)N[C@H](C(=O)N[C@@H](CO)C(=O)N3CCC[C@H]3C(=O)N[C@@H](Cc3ccc(O)cc3)C(=O)N[C@H](C(=O)N[C@@H](CO)C(=O)N[C@H](C(=O)O)[C@@H](C)O)C(C)C)[C@@H](C)CC)NC(=O)CNC(=O)[C@H](C)NC(=O)[C@H](CCCNC(=N)N)NC(=O)CNC(=O)[C@H](CSSC[C@H](NC(=O)[C@@H](N)[C@@H](C)O)C(=O)N3CCC[C@H]3C(=O)N[C@@H](CCC(=O)O)C(=O)NCC(=O)N[C@@H](Cc3c[nH]c4ccccc34)C(=O)N[C@@H](CO)C(=O)N[C@@H](CCC(=O)O)C(=O)N2)NC(=O)[C@H](CCC(=O)O)NC(=O)[C@H](Cc2ccc(O)cc2)NC(=O)CNC(=O)[C@H](Cc2ccc(O)cc2)NC1=O [K92chemFE W21A] (H-TCPEGWSECGVAIYGYECGRAGCGHFLNSGPNISPYVST-OH; disulfide 2-18, 9-23; N-terminus assumed) | 0.62 | – | – | 0.00848 | 17400
– | CC[C@H](C)[C@@H]1NC(=O)[C@H](C)NC(=O)[C@H](C(C)C)NC(=O)CNC(=O)[C@@H]2CSSC[C@@H](C(=O)NCC(=O)N[C@@H](Cc3c[nH]cn3)C(=O)N[C@@H](Cc3ccccc3)C(=O)N[C@@H](CC(C)C)C(=O)N[C@@H](CC(N)=O)C(=O)N[C@@H](CO)C(=O)NCC(=O)N3CCC[C@H]3C(=O)N[C@@H](CC(N)=O)C(=O)N[C@H](C(=O)N[C@@H](CO)C(=O)N3CCC[C@H]3C(=O)N[C@@H](Cc3ccc(O)cc3)C(=O)N[C@H](C(=O)N[C@@H](CO)C(=O)N[C@H](C(=O)O)[C@@H](C)O)C(C)C)[C@@H](C)CC)NC(=O)CNC(=O)[C@H](Cc3c[nH]cn3)NC(=O)[C@H](CCCNC(=N)N)NC(=O)CNC(=O)[C@H](CSSC[C@H](NC(=O)[C@@H](N)[C@@H](C)O)C(=O)N3CCC[C@H]3C(=O)N[C@@H](CCC(=O)O)C(=O)NCC(=O)N[C@@H](Cc3c[nH]c4ccccc34)C(=O)N[C@@H](CO)C(=O)N[C@@H](CCC(=O)O)C(=O)N2)NC(=O)[C@H](CCC(=O)O)NC(=O)[C@H](Cc2ccc(O)cc2)NC(=O)CNC(=O)[C@H](Cc2ccc(O)cc2)NC1=O [K92chemFE W21H] (H-TCPEGWSECGVAIYGYECGRHGCGHFLNSGPNISPYVST-OH; disulfide 2-18, 9-23; N-terminus assumed) | 0.69 | 0.000612 | 425000 | – | –
– | CC[C@H](C)[C@@H]1NC(=O)[C@H](C)NC(=O)[C@H](C(C)C)NC(=O)CNC(=O)[C@@H]2CSSC[C@@H](C(=O)NCC(=O)N[C@@H](Cc3c[nH]cn3)C(=O)N[C@@H](Cc3ccccc3)C(=O)N[C@@H](CC(C)C)C(=O)N[C@@H](CC(N)=O)C(=O)N[C@@H](CO)C(=O)NCC(=O)N3CCC[C@H]3C(=O)N[C@@H](CC(N)=O)C(=O)N[C@H](C(=O)N[C@@H](CO)C(=O)N3CCC[C@H]3C(=O)N[C@@H](Cc3ccc(O)cc3)C(=O)N[C@H](C(=O)N[C@@H](CO)C(=O)N[C@H](C(=O)O)[C@@H](C)O)C(C)C)[C@@H](C)CC)NC(=O)CNC(=O)[C@H](Cc3c[nH]c4ccccc34)NC(=O)[C@H](CCCNC(=N)N)NC(=O)CNC(=O)[C@H](CSSC[C@H](NC(=O)[C@@H](N)[C@@H](C)O)C(=O)N3CCC[C@H]3C(=O)N[C@@H](CCC(=O)O)C(=O)NCC(=O)N[C@@H](Cc3c[nH]c4ccccc34)C(=O)N[C@@H](CO)C(=O)N[C@@H](CCC(=O)O)C(=O)N2)NC(=O)[C@H](CCC(=O)O)NC(=O)[C@H](Cc2ccc(O)cc2)NC(=O)CNC(=O)[C@H](C)NC1=O [K92chemFE Y14A] (H-TCPEGWSECGVAIAGYECGRWGCGHFLNSGPNISPYVST-OH; disulfide 2-18, 9-23; N-terminus assumed) | 0.41 | – | – | 0.0001 | 27200
– | CC[C@H](C)[C@@H]1NC(=O)[C@H](C)NC(=O)[C@H](C(C)C)NC(=O)CNC(=O)[C@@H]2CSSC[C@@H](C(=O)NCC(=O)N[C@@H](Cc3c[nH]cn3)C(=O)N[C@@H](Cc3ccccc3)C(=O)N[C@@H](CC(C)C)C(=O)N[C@@H](CC(N)=O)C(=O)N[C@@H](CO)C(=O)NCC(=O)N3CCC[C@H]3C(=O)N[C@@H](CC(N)=O)C(=O)N[C@H](C(=O)N[C@@H](CO)C(=O)N3CCC[C@H]3C(=O)N[C@@H](Cc3ccc(O)cc3)C(=O)N[C@H](C(=O)N[C@@H](CO)C(=O)N[C@H](C(=O)O)[C@@H](C)O)C(C)C)[C@@H](C)CC)NC(=O)CNC(=O)[C@H](Cc3c[nH]c4ccccc34)NC(=O)[C@H](CCCNC(=N)N)NC(=O)CNC(=O)[C@H](CSSC[C@H](NC(=O)[C@@H](N)[C@@H](C)O)C(=O)N3CCC[C@H]3C(=O)N[C@@H](CCC(=O)O)C(=O)NCC(=O)N[C@@H](Cc3c[nH]c4ccccc34)C(=O)N[C@@H](CO)C(=O)N[C@@H](CCC(=O)O)C(=O)N2)NC(=O)[C@H](CCC(=O)O)NC(=O)[C@H](C)NC(=O)CNC(=O)[C@H](Cc2ccc(O)cc2)NC1=O [K92chemFE Y16A] (H-TCPEGWSECGVAIYGAECGRWGCGHFLNSGPNISPYVST-OH; disulfide 2-18, 9-23; N-terminus assumed) | 0.66 | – | – | 0.786 | 1.56e+07
much-lower loss of affinity | K92 chemFE W21H: W21H mutant of K92chemFE (TCPEGWSECGVAIYGYECGRHGCGHFLNSGPNISPYVST) | – | – | – | – | –
